Results: patent publication US5747507A, “Cardio-protective agent” (priority 1992, dated 1998)
Values joined by “and” are separate entries in the source; they are usually repeats but may differ in a detail not shown here. Equal values may be shown once.

Columns and labels:
[1] = literature; cited from earlier work
Japanese White rabbits = test: Toxicity in oral administration; format: in vivo; details: 30 mg/kg (body weight)
Excerpt: Toxity in oral administration

vascular smooth muscle = details: literature; cited from earlier work
[2] = literature; cited from earlier work; remark: listed apart in the source
isolated hearts [3] = test: Inhibitory effect on myocardial cell injury caused by ischemia/reperfusion (2): leaked lactate dehydrogenase activity, isolated hearts (Langendorff method); set-up: species or system rats; details: for Lactate dehydrogenase activity, before ischemia / Lactate dehydrogenase activity, 10 min after initiation of reperfusion: mean values; for Activities of the leaked enzymes (in words): lactate dehydrogenase and creatine kinase, ischemia/reperfusion
Excerpt: (§1) Hearts excised from male Wistar rats (approximately six-week old) were perfused with the Krebs-Heiseleit solution according to the Langendorff method [Tamura and Fujii, "Yakurigaku Jikkenho (Experimental Methods in Pharmacology)", pp. 176-177, 1990, published by Kyodo-isho Publishing Co., Ltd., Japan; and Yamada, Kubota et al., "Yakurigaku Jisshu (Pharmacological Practice)", pp. 79-81, 1979, published by Kodansha Scientific Co., Ltd., Japan]. After the isolated hearts were allowed to stabilize, the flowing of the perfusate was temporarily stopped, and the isolated hearts were allowed to be in an ischemic state for 40 minutes. Subsequently, reperfusion was conducted for 40 minutes.
(§2) Inhibitory effect on myocardial cell injury caused by ischemia/reperfusion (2)
(§3) In the same manner as in Example 2, hearts excised from rats were perfused in the Krebs-Henseleit solution in accordance with the Langendorff method. After the isolated hearts were allowed to stabilize, the flowing of the perfusate was temporarily stopped, and the isolated hearts were allowed to be in an ischemic state for 20 minutes. Subsequently, reperfusion was conducted for 60 minutes. As activities of the leaked enzymes, the lactate dehydrogenase activity and […] activity were examined with respect to each of the samples using an autoanalizer (Super Z 818, manufactured and sold by NITTEC Co., Ltd., Japan). The aqueous solutions of the hydrochlorides of compounds (1) and (83) were individually introduced to and perfused in a perfusion circuit with reperfusate simultaneously with the initiation of the reperfusion under the conditions as shown in Table 4. As a control, physiological saline was perfused with the reperfusate in the same manner as mentioned above. The above-mentionedactivities of the enzymes leaked into the perfusate and reperfusate were, respectively, measured before the ischemia and 10 minutes after the initiation of reperfusion.

isolated hearts [4] = test: Inhibitory effect on myocardial cell injury caused by ischemia/reperfusion (2): leaked creatine kinase activity, isolated hearts (Langendorff method); set-up: species or system rats; details: mean values
Excerpt: as §1, §2, §3

[5] = literature; cited from earlier work; remark: listed apart in the source
isolated hearts [6] = test: Inhibitory effect on myocardial cell injury caused by ischemia/reperfusion (1): coronary artery flow of isolated hearts (Langendorff method); set-up: species or system male Wistar rats; details: for Coronary flow change (% based on pre-ischemic values): 40 min after initiation of reperfusion; for Lowering of coronary artery flow (in words): ischemia/reperfusion; for Bradycardia and cardiac arrest (in words): perfused isolated hearts
Excerpt: Inhibitory effect on myocardial cell injury caused by ischemia/reperfusion (1)
as §1
Hydrochlorides of compounds (1) and (83) mentioned above were individually dissolved in distilled water, and the resultant aqueous solutions of the hydrochlorides of compounds (1) and (83) were individually introduced to and perfused in a perfusion circuit with the reperfusate for 5 minutes simultaneously with the initiation of reperfusion. In the same manner as mentioned above, diltiazem as a comparative agent and physiological saline as a control were individually perfused with the reperfusate. The perfusion conditions of the aqueous solutions of the hydrochlorides of compounds (1) and (83), diltiazem and physiological saline are shown in Table 3.
With respect to each of the test agents, the coronary artery flow was measured just before the ischemia, i.e., the stopping of the perfusion, and 40 minutes after the initiation of reperfusion using an electromagnetic flow probe FF-030P (manufactured and sold by Nippon Koden Corp., Japan).

[7] = test system: endothelin-induced myocardial infarction; test: Inhibitory effect on endothelin-induced myocardial infarction: T-wave elevation in rabbit electrocardiogram; format: in vivo, Japanese White rabbits; details: 3.0 mg/kg oral; for T-wave elevation: 15 min before endothelin 1.2 nmol/kg i.v., 3 min after endothelin, mean values
Excerpt: (§4) Inhibitory effect on endothelin-induced myocardial infarction
(§5) The inhibitory effect of the cardio-protective agent of the present invention on endothelin-induced myocardial infarction was examined in the following manner.
(§6) The animals used in the examination were Japanese White rabbits each weighing 2.0 to 3.1 kg, which were divided into two groups, i.e., a first group consisting of 40 rabbits and a second group consisting of 13 rabbits. The hydrochloride of the above-mentioned compound (1) was dissolved in distilled water, and the resultant solution was orally administered to each of 10 rabbits of the first group in an amount of 3.0 mg/kg (body weight). In the same manner as mentioned above, diltiazem and nicorandil were individually, orally administered to each of another 10 rabbits of the first group. As a control, distilled water was orally administered to each of the remaining 10 rabbits of the first group.
(§7) Fifteen minutes after the administration, 1.2 nmol/kg (body weight) of endothelin (manufactured and sold by Peptide Institute, Japan) was injected into the auricular vein of each of the above rabbits of the first and second groups, thereby inducing myocardial infarction. With respect to the rabbits of the first and second groups, the degree of myocardial infarction was evaluated by rabbit electrocardiogram and by measuring the activity of enzymes leaked into the rabbit plasma, respectively, as follows.
With respect to each of the rabbits of the first group, the rabbit electrocardiogram was taken just before and 3 minutes after the injection of endothelin, according to the standard limb lead II induction method [Ozawa, Training of Electrocardiogram, p. 24-32, 1984, Chugai Igaku Co., Ltd., Japan), and T-wave elevation was measured.

heart = details: in vivo; cited from earlier work
[8] = test system: endothelin-induced myocardial infarction; test: Inhibitory effect on endothelin-induced myocardial infarction: lactate dehydrogenase activity in rabbit plasma; format: in vivo, Japanese White rabbits
Excerpt: as §4, §5, §6
(§8) With respect to the rabbits of the second group, the above-prepared aqueous solution of the hydrochloride of compound (1) was orally administered to each of 7 rabbits in the same manner as mentioned above, and as a control, distilled water was orally administered to each of the remaining 6 rabbits.
as §7
(§9) With respect to each of the rabbits of the second group, the blood was collected using a heparinized syringe just before and thirty minutes after the intravenous administration of endothelin. The collected blood was subjected to centrifugation using a cooling centrifuge (CR20B2, manufactured and sold by Hitachi Corp., Japan), to thereby separate plasma. […]

[9] = test system: endothelin-induced myocardial infarction; test: Inhibitory effect on endothelin-induced myocardial infarction: creatine kinase activity in rabbit plasma; format: in vivo, Japanese White rabbits
Excerpt: as §4, §5, §6, §8, §7, §9

[10] = plasma, 3.0 mg/kg oral, 30 min after i.v. endothelin, mean values
[11] = plasma, 3.0 mg/kg oral, just before i.v. endothelin, mean values

Compound	Cerebral protective effect [1]	Effect on vascular smooth muscle (vascular smooth muscle)	Effect on blood flow [2]	Lactate dehydrogenase activity, before ischemia (isolated hearts [3]; 10^-5 M group) [IU/min]	Lactate dehydrogenase activity, 10 min after initiation of reperfusion (isolated hearts [3]; 10^-5 M) [IU/min]	Activities of the leaked enzymes (in words) (isolated hearts [3])	Creatine kinase activity, before ischemia (isolated hearts [4]; 10^-5 M group) [IU/min]	Creatine kinase activity, 10 min after initiation of reperfusion (isolated hearts [4]; 10^-5 M) [IU/min]	Antihypertensive effect [5]	Lowering of coronary artery flow (in words) (isolated hearts [6])	Bradycardia and cardiac arrest (in words) (isolated hearts [6])	Inhibition of T-wave elevation (in words) [7]	T-wave elevation [7]	Coronary flow change (% based on pre-ischemic values) (isolated hearts [6]; 3 × 10^-6 M) [%]	other results
O=S(=O)(c1cccc2c(O)nccc12)N1CCCNCC1 [compound (83), 1-(1-hydroxy-5-isoquinolinesulfonyl)homopiperazine]	cerebral protective effect	relaxing effect on vascular smooth muscle	increasing effect on blood flow	1.2	487.0	greatly inhibited	17.4	881.5	antihypertensive effect	greatly inhibited	neither bradycardia nor cardiac arrest occurred	–	–	–	Number of rabbits died/Number of rabbits tested (Japanese White rabbits): 0/5; Coronary flow change (% based on pre-ischemic values) (isolated hearts [6]; 1 × 10^-5 M): 58%; Coronary flow change (% based on pre-ischemic values) (isolated hearts [6]; 3 × 10^-5 M): 61%
COc1ccc([C@@H]2Sc3ccccc3N(CCN(C)C)C(=O)[C@@H]2OC(C)=O)cc1 [Diltiazem, reference compound]	–	–	–	–	–	–	–	–	–	–	bradycardia and cardiac arrest occurred	T-wave elevation was not inhibited	0.46 mV	54	Bradycardia (isolated hearts [6]; 1 × 10^-5 M): bradycardia; Cardiac arrest (isolated hearts [6]; 1 × 10^-5 M): cardiac arrest; Side effect on atrioventricular conducting system (heart): atrioventricular conducting system of the patient is depressed; Side effect on heart rate (heart): decrease in heart rate
N=C(N)NCCNS(=O)(=O)c1cccc2cnccc12 [(104), N-(2-guanidinoethyl)-5-isoquinolinesulfonamide]	–	relaxing effect on vascular smooth muscle	increasing effect on blood flow	–	–	–	–	–	–	–	–	–	–	–	–
O=S(=O)(c1cccc2cnccc12)N1CCCNCC1 [compound (1), 1-(5-isoquinolinesulfonyl)homopiperazine]	cerebral protective effect	relaxing effect on vascular smooth muscle	increasing effect on blood flow	21.3	575.3	greatly inhibited	18.6	901.5	antihypertensive effect	greatly inhibited	neither bradycardia nor cardiac arrest occurred	can remarkably inhibit the T-wave elevation	0.00 mV and 0 mV	70	Lactate dehydrogenase activity, before ischemia (isolated hearts [3]; 10^-6 M group): 22.8 IU/min; Lactate dehydrogenase activity, 10 min after initiation of reperfusion (isolated hearts [3]; 10^-6 M): 732.8 IU/min; Creatine kinase activity, before ischemia (isolated hearts [4]; 10^-6 M group): 26.6 IU/min; Creatine kinase activity, 10 min after initiation of reperfusion (isolated hearts [4]; 10^-6 M): 1159.8 IU/min; Effect on lactate dehydrogenase activity in plasma (in words) ([8]; caused by i.v. endothelin): had an inhibitory effect; Lactate dehydrogenase activity, 30 min after administration [8, 10]: 52.1 IU/1; Lactate dehydrogenase activity, just before administration [8, 11]: 29.7 IU/1; Effect on creatine kinase activity in plasma (in words) ([9]; caused by i.v. endothelin): had an inhibitory effect; Creatine kinase activity, 30 min after administration [9, 10]: 163.9 IU/1; Creatine kinase activity, just before administration [9, 11]: 114.6 IU/1
O=C(NCCO[N+](=O)[O-])c1cccnc1 [Nicorandil]	–	–	–	–	–	–	–	–	–	–	–	T-wave elevation was not inhibited	0.58 mV	–	–
